Columns and labels:
[1] = molecular target: T1, NQO1 WT (NAD(P)H:quinone oxidoreductase 1) (Homo sapiens, UniProt P15559); assay: ThermoFAD thermal shift; assay type: binding; details: 2 mM BPPSA, 50 mM HEPES pH 7.0
T1 construct: codon-optimised gene in pET28a, E. coli; FAD-containing homodimer

[2] = molecular target: T2, NQO1 WT (NAD(P)H:quinone oxidoreductase 1) (Homo sapiens, UniProt P15559, P187S); assay: ThermoFAD thermal shift; assay type: binding; details: 2 mM BPPSA, 50 mM HEPES pH 7.0
T2 construct: codon-optimised gene in pET28a, E. coli; FAD-containing homodimer

[3] = molecular target: T1, NQO1 WT (NAD(P)H:quinone oxidoreductase 1); assay: isothermal titration calorimetry; assay type: binding; details: read-out: dissociation constant
From the text: (§1) isothermal titration calorimetry on NQO1 WT (NAD(P)H:quinone oxidoreductase 1) | dissociation constants for the binding of BPPSA to the wild‐type and P187S variant

[4] = molecular target: T2, NQO1 WT (NAD(P)H:quinone oxidoreductase 1); assay: isothermal titration calorimetry; assay type: binding; details: read-out: dissociation constant
From the text: as §1

[5] = molecular target: T2, NQO1 WT (NAD(P)H:quinone oxidoreductase 1); assay: NADH-menadione reductase assay, absorbance at […] nm; assay type: biochemical
[6] = molecular target: T1, NQO1 WT (NAD(P)H:quinone oxidoreductase 1); assay: NADH-menadione reductase assay, absorbance at […] nm; assay type: biochemical
[7] = molecular target: T1, NQO1 WT (NAD(P)H:quinone oxidoreductase 1); assay: crystal structure, […] Å; assay type: binding; details: co-crystal with BPPSA; FAD in all four chains

Row | SMILES | increase in melting temperature [1] [°C] | increase in melting temperature [2] [°C] | Kd [3] [µM] | Kd [4] [µM] | IC50 [5] [µM] | IC50 [6] [µM] | crystal structure, 2.76 Å [7]
1 | O=S(=O)(Nc1ccccc1Br)N1CCCC1 [BPPSA, N‐(2‐bromophenyl)pyrrolidine‐1‐sulfonamide] | 1 | 2.5 | 7.95 ± 0.8 | 20 ± 0.41 | 26.2 ± 1.2 | 8.6 ± 1.1 | –
2 | Cc1cc2nc3c(=O)[nH]c(=O)nc-3n(C[C@H](O)[C@H](O)[C@H](O)COP(=O)(O)OP(=O)(O)OC[C@H]3O[C@@H](n4cnc5c(N)ncnc54)[C@H](O)[C@@H]3O)c2cc1C [FAD] | – | – | – | – | – | – | Clear residual electron density was observed for FAD bound to each of the four chains

Source: PMC7027498, “A small molecule chaperone rescues the stability and activity of a cancer‐associated variant of NAD(P)H:quinone oxidoreductase 1 in vitro” (Febs Letters, 2019)
